Patent publication US11673910B2, “Macrolides with modified desosamine sugars and uses thereof” (Zikani Therapeutics, Inc., priority 2017, dated 2023)
Values after ≈ are worked out from the molar mass of the structure shown.

Key:
Assay type in all cases: cell-based
[1] = system: A. baumannii strain MP-15; experiment: Broth dilution MIC determination (CLSI) against A. baumannii strain MP-15; details: Acinetobacter baumannii, MP15
Method: (§1) Minimum inhibitory concentrations (MICs) for macrolides described herein were determined for E. coli strain MP-4, K. pneumoniae strain MP-548, P. aeruginosa strain MP-3, A. baumannii strain MP-15, and S. aureus strain MP-12 using similar test procedures as published in US Pat. Pub. No. 2017/0305953. MIC data is represented as “+++” for values less than or equal to 4 mg/L, “++” for values of greater than or equal to 8 mg/L and less than 32 mg/L, and “+” for values of 32 mg/L or greater. ND indicates no data for a particular compound. CLSI standard procedures for broth dilution MIC determination were used.

[2] = system: E. coli strain MP-4; experiment: Broth dilution MIC determination (CLSI) against E. coli strain MP-4; details: Escherichia coli, MP4
Method: as §1

[3] = system: K. pneumoniae strain MP-548; experiment: Broth dilution MIC determination (CLSI) against K. pneumoniae strain MP-548; details: Klebsiella pneumoniae, MP548
Method: as §1

[4] = system: S. aureus strain MP-12; experiment: Broth dilution MIC determination (CLSI) against S. aureus strain MP-12; details: Staphylococcus aureus, MP12, strain MP-12
Method: as §1

[5] = system: P. aeruginosa strain MP-3; experiment: Broth dilution MIC determination (CLSI) against P. aeruginosa strain MP-3; details: Pseudomonas aeruginosa, MP3
Method: as §1

SMILES | MIC [1] | MIC [2] | MIC [3] | MIC [4] | MIC [5]
CC[C@H]1OC(=O)C(C)(C)C(=O)[C@H](C)[C@@H](O[C@@H]2O[C@H](CNC3CC3)CC(N(C)C)[C@H]2O)[C@](C)(OC)C[C@@H](C)CN[C@H](C)[C@H]2NC(=O)O[C@@]21C (stereo partly shown) [Compound 192, 2-Methyl-3-descladinosyl-3-oxo-6-O-methy 1-N9a-desmethyl-11,12-dideoxy-12,11-(oxycarbonylimino)-6′-cylcopropylamino Azithromycin] | ≥ 32 µg/mL | ≤ 4 µg/mL | ≥ 32 µg/mL | ≥ 32 µg/mL | ≥ 32 µg/mL
CC[C@H]1OC(=O)C(C)C(=O)[C@H](C)[C@@H](O[C@@H]2OC(CNCc3cccc(OC)c3)CC(N(C)C)C2O)[C@](C)(OC)C[C@@H](C)CN[C@H](C)[C@H]2NC(=O)O[C@@]21C (stereo partly shown) [Compound 43] | ≥ 32 µg/mL | ≤ 4 µg/mL | ≥ 32 µg/mL | ≥ 32 µg/mL | ≥ 32 µg/mL
C#CCNCC1CC(N(C)C)C(O)[C@H](O[C@@H]2[C@@H](C)C(=O)C(C)C(=O)O[C@H](CC)[C@@]3(C)OC(=O)N[C@@H]3[C@@H](C)NC[C@H](C)C[C@@]2(C)OC)O1 (stereo partly shown) [Compound 53] | ≥ 32 µg/mL | ≤ 4 µg/mL | 8 to 32 µg/mL (≈ 12 to 48 µM) | ≥ 32 µg/mL | ≥ 32 µg/mL
CC[C@H]1OC(=O)[C@]2(C)CCO[C@](C)(C[C@@H](C)CN[C@H](C)[C@H]3NC(=O)O[C@@]31C)[C@H](O[C@@H]1O[C@H](CNCC3CC3)C[C@H](N(C)C)[C@H]1O)[C@@H](C)C2=O [Compound 196] | ≥ 32 µg/mL | 8 to 32 µg/mL (≈ 11.5 to 46 µM) | ≥ 32 µg/mL | ≥ 32 µg/mL | ≥ 32 µg/mL
CC[C@H]1OC(=O)C(C)C(=O)[C@H](C)[C@@H](O[C@@H]2OC(CNCc3cccc(F)c3)CC(N(C)C)C2O)[C@](C)(OC)C[C@@H](C)CN[C@H](C)[C@H]2NC(=O)O[C@@]21C (stereo partly shown) [Compound 30] | ≥ 32 µg/mL | ≤ 4 µg/mL | ≥ 32 µg/mL | ≥ 32 µg/mL | ≥ 32 µg/mL
CC[C@H]1OC(=O)[C@@]2(C)CCOC(C)(C[C@@H](C)CN[C@H](C)[C@H]3NC(=O)O[C@@]31C)[C@H](O[C@@H]1O[C@H](CNCC(F)(F)F)C[C@H](N(C)C)[C@H]1O)[C@@H](C)C2=O [Compound 206] | ≥ 32 µg/mL | ≤ 4 µg/mL | 8 to 32 µg/mL (≈ 11.1 to 44.3 µM) | ≤ 4 µg/mL | ≥ 32 µg/mL
CC[C@H]1OC(=O)C(C)C(=O)[C@H](C)[C@@H](O[C@@H]2OC(CNCCc3ccc(F)cc3)CC(N(C)C)C2O)[C@](C)(OC)C[C@@H](C)CN[C@H](C)[C@H]2NC(=O)O[C@@]21C (stereo partly shown) [Compound 39] | ≥ 32 µg/mL | ≤ 4 µg/mL | ≥ 32 µg/mL | ≥ 32 µg/mL | ≥ 32 µg/mL
CC[C@H]1OC(=O)C(C)C(=O)[C@H](C)[C@@H](OC2OC(CN(C)C34CC(C3)C4)CC(N(C)C)C2O)[C@](C)(OC)C[C@@H](C)CN[C@H](C)[C@H]2NC(=O)O[C@@]21C (stereo partly shown) [Compound 152, 3-Descladinosyl-3-oxo-6-O-methyl-N9a-desmethyl-11,12-dideoxy-12,11-(oxycarbonylimino)-6′-bicyclo[1.1.1]pentanylmethylamino Azithromycin] | 8 to 32 µg/mL (≈ 11.3 to 45.1 µM) | ≥ 32 µg/mL | ≥ 32 µg/mL | 8 to 32 µg/mL (≈ 11.3 to 45.1 µM) | ≥ 32 µg/mL
CC[C@H]1OC(=O)[C@@](C)(F)C(=O)[C@H](C)[C@@H](O[C@@H]2OC(CNCc3cccnc3)CC(N(C)C)C2O)[C@](C)(OC)C[C@@H](C)C(=O)[C@H](C)[C@H]2NC(=O)O[C@@]21C (stereo partly shown) [Compound 101] | ≥ 32 µg/mL | ≥ 32 µg/mL | ≥ 32 µg/mL | ≤ 4 µg/mL | ≥ 32 µg/mL
C=CC1CC(N(C)C)C(O)[C@H](O[C@@H]2[C@@H](C)C(=O)[C@]3(C)CCOC2(C)C[C@@H](C)CN[C@H](C)[C@H]2NC(=O)O[C@]2(C)[C@@H](CC)OC3=O)O1 (stereo partly shown) [Compound 211] | ≤ 4 µg/mL | ≤ 4 µg/mL | ≤ 4 µg/mL | ≤ 4 µg/mL | ≥ 32 µg/mL
CC[C@H]1OC(=O)[C@@]2(C)CCOC(C)(C[C@@H](C)CN[C@H](C)[C@H]3NC(=O)O[C@@]31C)[C@H](O[C@@H]1OC(CNC3CC3)CC(N(C)C)C1O)[C@@H](C)C2=O (stereo partly shown) [Compound 80] | 8 to 32 µg/mL (≈ 11.7 to 47 µM) | ≤ 4 µg/mL | ≤ 4 µg/mL | ≤ 4 µg/mL | 8 to 32 µg/mL (≈ 11.7 to 47 µM)
CC[C@H]1OC(=O)C(C)C(=O)[C@H](C)[C@@H](OC2OC(CNCCS(C)(=O)=O)CC(N(C)C)C2O)[C@](C)(OC)C[C@@H](C)CN[C@H](C)[C@H]2NC(=O)O[C@@]21C (stereo partly shown) [Compound 140, 3-Descladinosyl-3-oxo-6-O-methyl-N9a-desmethyl-11,12-dideoxy-12,11-(oxycarbonylimino)-6′-2″-(methylsulfonyl)ethan-1″-amino Azithromycin] | ≥ 32 µg/mL | ≥ 32 µg/mL | ≥ 32 µg/mL | ≥ 32 µg/mL | ≥ 32 µg/mL
CC[C@H]1OC(=O)C(C)C(=O)[C@H](C)[C@@H](OC2OC(CNCC(=O)N(C)C)CC(N(C)C)C2O)[C@](C)(OC)C[C@@H](C)CN[C@H](C)[C@H]2NC(=O)O[C@@]21C (stereo partly shown) [Compound 117, 3-Descladinosyl-3-oxo-6-O-methyl-N9a-desmethyl-11,12-dideoxy-12,11-(oxycarbonylimino)-6′-(N—(N,N-dimethylacetamidyl)-amino) Azithromycin] | ≥ 32 µg/mL | ≥ 32 µg/mL | ≥ 32 µg/mL | ≥ 32 µg/mL | ≥ 32 µg/mL
CC[C@H]1OC(=O)[C@@]2(C)CCOC(C)(C[C@@H](C)CN[C@H](C)[C@H]3NC(=O)O[C@@]31C)[C@H](O[C@@H]1OC(C)CC(N(C)C)C1O)[C@@H](C)C2=O (stereo partly shown) [Compound 219] | 8 to 32 µg/mL (≈ 12.8 to 51.1 µM) | ≤ 4 µg/mL | ≤ 4 µg/mL | ≤ 4 µg/mL | ≥ 32 µg/mL
CC[C@H]1OC(=O)C(C)C(=O)[C@H](C)[C@@H](OC2OC(CN(C)CCOC)CC(N(C)C)C2O)[C@](C)(OC)C[C@@H](C)CN[C@H](C)[C@H]2NC(=O)O[C@@]21C (stereo partly shown) [Compound 131, 3-Descladinosyl-3-oxo-6-O-methyl-N9a-desmethyl-11,12-dideoxy-12,11-(oxycarbonylimino)-6′-[N-(methyl)-2-methoxyethylamino]Azithromycin] | ≥ 32 µg/mL | ≤ 4 µg/mL | 8 to 32 µg/mL (≈ 11.4 to 45.7 µM) | ≥ 32 µg/mL | ≥ 32 µg/mL
CC[C@H]1OC(=O)C(C)C(=O)[C@H](C)[C@@H](O[C@@H]2O[C@H](C(C)NCC3CC3)CC(N(C)C)[C@H]2O)[C@](C)(OC)C[C@@H](C)CN[C@H](C)[C@H]2NC(=O)O[C@@]21C (stereo partly drawn) [Compound 178, 3-Descladinosyl-3-oxo-6-O-methyl-N9a-desmethyl-11,12-dideoxy-12,11-(oxycarbonylimino)-6′-((R,S)-(cyclopropylmethylamino)ethyl) Azithromycin] | ≥ 32 µg/mL | ≤ 4 µg/mL | 8 to 32 µg/mL (≈ 11.5 to 45.9 µM) | ≥ 32 µg/mL | ≥ 32 µg/mL
CC[C@H]1OC(=O)[C@@]2(C)CCOC(C)(C[C@@H](C)CN(C)[C@H](C)[C@H]3NC(=O)O[C@@]31C)[C@H](O[C@@H]1OC(C)CC(N(C)C)C1O)[C@@H](C)C2=O (stereo partly shown) [Compound 223] | 8 to 32 µg/mL (≈ 12.5 to 50 µM) | ≤ 4 µg/mL | ≤ 4 µg/mL | ≤ 4 µg/mL | ≥ 32 µg/mL
CC[C@H]1OC(=O)C(C)C(=O)[C@H](C)[C@@H](O[C@@H]2OC(CNCc3nccn3C)CC(N(C)C)C2O)[C@](C)(OC)C[C@@H](C)CN[C@H](C)[C@H]2NC(=O)O[C@@]21C (stereo partly shown) [Compound 25] | ≥ 32 µg/mL | ≥ 32 µg/mL | ≥ 32 µg/mL | ≥ 32 µg/mL | ≥ 32 µg/mL
CC[C@H]1OC(=O)C(C)C(=O)[C@H](C)[C@@H](OC2OC(CN(C)C(C)C)CC(N(C)C)C2O)[C@](C)(OC)C[C@@H](C)CN(C)[C@H](C)[C@H]2NC(=O)O[C@@]21C (stereo partly shown) [Compound 160, 3-Desdadinosyl-3-oxo-6-O-methyl-9a-desmethyl-11,12-dideoxy-12,11-(oxycarbonylimino)-6′-isopropylmethylamino Azithromycin] | ≥ 32 µg/mL | ≤ 4 µg/mL | ≥ 32 µg/mL | ≥ 32 µg/mL | ≥ 32 µg/mL
CCNC[C@@H]1CC(N(C)C)[C@@H](O)[C@H](O[C@@H]2[C@@H](C)C(=O)C(C)C(=O)O[C@H](CC)[C@@]3(C)OC(=O)N[C@@H]3[C@@H](C)N(C)C[C@H](C)C[C@@]2(C)OC)O1 (stereo partly shown) [Compound 165, 3-Descladinosyl-3-oxo-6-O-methyl-11,12-dideoxy-12,11-(oxycarbonylimino)-6′-ethylamino Azithromycin] | ≥ 32 µg/mL | ≤ 4 µg/mL | 8 to 32 µg/mL (≈ 11.9 to 47.7 µM) | ≥ 32 µg/mL | ≥ 32 µg/mL
CC[C@H]1OC(=O)C(C)C(=O)[C@H](C)[C@@H](OC2OC(CN3CC4CC4C3)CC(N(C)C)C2O)[C@](C)(OC)C[C@@H](C)CN[C@H](C)[C@H]2NC(=O)O[C@@]21C (stereo partly shown) [Compound 137, 3-Descladinosyl-3-oxo-6-O-methyl-N9a-desmethyl-11,12-dideoxy-12,11-(oxycarbonylimino)-6′-azabicyclo[3.1.0]hexan-3″-ylamino Azithromycin] | 8 to 32 µg/mL (≈ 11.5 to 46 µM) | ≤ 4 µg/mL | 8 to 32 µg/mL (≈ 11.5 to 46 µM) | ≥ 32 µg/mL | ≥ 32 µg/mL
CC[C@H]1OC(=O)[C@@]2(C)CCO[C@](C)(C[C@@H](C)CN[C@H](C)[C@H]3NC(=O)O[C@@]31C)[C@H](O[C@@H]1O[C@H](CNCC3CC3)C[C@H](N(C)C)[C@H]1O)[C@@H](C)C2=O [Compound 197] | ≥ 32 µg/mL | ≥ 32 µg/mL | ≥ 32 µg/mL | ≥ 32 µg/mL | ≥ 32 µg/mL
CC[C@H]1OC(=O)[C@@]2(C)CCOC(C)(C[C@@H](C)CN(CC)[C@H](C)[C@H]3NC(=O)O[C@@]31C)[C@H](O[C@@H]1OC(C)CC(N(C)C)C1O)[C@@H](C)C2=O (stereo partly shown) [Compound 221] | ≥ 32 µg/mL | ≤ 4 µg/mL | ≤ 4 µg/mL | ≤ 4 µg/mL | ≥ 32 µg/mL
